Test results from patent US20230295116A1, “PROTEASOME ENHANCERS AND USES THEREOF” (Board of Trustees of Michigan State University, priority 2020, published 2023).

How the values were obtained:
NF-kB transcription = experiment: NF-κB reporter assay (luciferase); assay type: cell-based; settings: Homo sapiens; HCT-116 NF-kappaB-luc reporter cells, TNF-alpha 2 ng/mL, 16 hours, n=3; read-out: EC50 for inhibition of NF-kB transcription
Description: (§1) Firefly luminescence was measured using the One-Step Luciferase Assay System from BPS Biosciences.

[1] = test system: MYC-mediated gene transcription; experiment: Myc reporter assay (luciferase); assay type: cell-based; settings: Homo sapiens, HCT-116; HCT116 Myc-Luc reporter cells, 16 hours, n=3; read-out: EC50 for inhibition of c-MYC
Description: as §1, §1

[2] = target: T1, human constitutive 20S proteasome (Homo sapiens, UniProt P25787+P60900); experiment: Fluorogenic peptide degradation 20S proteasome activity assay; assay type: biochemical; settings: for AC200 (doubling of 20S activity): combination of the three fluorogenic peptide substrates (CT-L, T-L, Casp-L)
T1 construct: purchased Boston Biochem, Inc. (Cambridge, MA)
Excerpt: These substrates were a chymotryptic-like (CT-L), a trypsin-like (T-L) and a caspase-like (Casp-L) substrate, one for each of the catalytic sites of the proteasome. It has been shown that the proteasome’s active sites allosterically regulate each other in the presence of their individual substrates. Therefore, a combination of the three probes to represent the overall activity of a 20S activator more accurately in a system in which all catalytic sites are interacting.
The 20S activity of astemizoles and N-acylastemizole (compound 2) was further assessed in the fluorogenic peptide assay, using each of the individual substrates as well as the combination of the three (FIG. 1B). […] The N-acylated analog achieved similar max fold increases for each substrate/combination (>800% increase over vehicle).
Activity assays were carried out in a 100 µL reaction volume. Different concentrations (1-80 µM) of test compounds were added to a black flat/clear bottom 96-well plate containing 1 nM of human constitutive 20S proteasome, in 50 mM Tris-HCl at pH 7.8, 100 mM NaCl and allowed to incubate for 15 min at 37° C. Fluorogenic substrates were then added and the enzymatic activity measured at 37° C. on a SpectraMax M5e spectrometer by measuring the change in fluorescence unit per minute for 1 hour at 380-460 nm. The fluorescence units for the vehicle control were set at a 100%, and the ratio of drug-treated sample set to that of vehicle control was used to calculate the fold change in enzymatic activity. The fluorogenic substrates used were one of the following: Suc-LLVY-AMC (CT-L activity, 20 µM), Z-LLE-AMC (Casp-L activity, 20 µM), Boc-LRR-AMC (T-L activity, 40 µM) or a combination of the three substrates each at 6.67 µM.

Row | EC50 (NF-kB transcription) | EC50 [1] | AC200 (doubling of 20S activity) [2] | max fold increase (increase over vehicle) ([2]; each substrate/combination) | activation of catalytic sites of the 20S proteasome ([2]; CT-L, T-L and Casp-L substrates) | Compound
1 | 18 µM | 19 µM | 3.9 µM | > 800% | – | COc1ccc(CC(=O)N2CCC(Nc3nc4ccccc4n3Cc3ccc(F)cc3)CC2)cc1 [Compound 2, 1-(4-((1-(4-fluorobenzyl)-1H-benzo[d]imidazol-2-yl)amino)piperidin-1-yl)-2-(4-methoxyphenyl)ethan-1-one]
2 | – | – | 3.3 µM | – | activates all three catalytic sites | COc1ccc(CCN2CCC(Nc3nc4ccccc4n3Cc3ccc(F)cc3)CC2)cc1 [Compound 1, astemizole, reference compound]
